The values that follow come from patent publication US10308620B2, “Muscarinic M1 receptor positive allosteric modulators” (SUVEN LIFE SCIENCES LIMITED, priority 2015, dated 2019).

pEC50: −log10 of the molar value.

The target in the assay is recombinant human Muscarinic M1 receptor (Homo sapiens (Human), UniProt P11229). The assay is described as follows: Allosteric potency EC50, CHO cells with pCRE-Luc reporter, in presence of EC20 of acetylcholine. The class given is cell-based. As to conditions: 4 hours. The method in brief:
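Stable CHO cells carrying human M1 receptor and a pCRE-Luc reporter, serum-starved overnight, then exposed to rising compound concentrations plus EC20 acetylcholine in OptiMEM for 4 h at 37 °C. Luciferase read after lysis. EC50 is the concentration giving 50% luciferase stimulation with EC20 acetylcholine present.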

Sequence of recombinant human Muscarinic M1 receptor (P11229 whole entry): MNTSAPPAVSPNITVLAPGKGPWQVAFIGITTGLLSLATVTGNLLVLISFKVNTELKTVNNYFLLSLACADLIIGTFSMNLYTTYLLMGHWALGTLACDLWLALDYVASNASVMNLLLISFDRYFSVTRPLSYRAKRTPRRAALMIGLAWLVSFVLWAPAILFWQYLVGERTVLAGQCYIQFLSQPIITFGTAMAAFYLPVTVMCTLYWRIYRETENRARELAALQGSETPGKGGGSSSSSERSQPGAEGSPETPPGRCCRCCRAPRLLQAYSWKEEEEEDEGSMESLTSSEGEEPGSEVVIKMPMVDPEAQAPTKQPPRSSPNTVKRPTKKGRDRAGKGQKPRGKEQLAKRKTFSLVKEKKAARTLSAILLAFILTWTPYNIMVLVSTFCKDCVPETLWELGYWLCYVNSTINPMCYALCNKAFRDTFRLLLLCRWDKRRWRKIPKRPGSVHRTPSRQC

One may read the pEC50 as the EC50 on a negative log10 scale, so that one unit is a factor of ten. For `O=C(N[C@H]1CCCC[C@@H]1O)C1=CN(Cc2cccc(F)c2F)c2ccccc2O1` [Example 18, N-(cis-1S, 2S-2-Hydroxycyclohexyl)-4-(2,3-difluorobenzyl)-4H-benzo[1,4]oxazine-2-carboxamide], the pEC50 is 6.48.
